From publication PMC3666932 (Archives of pharmacal research, 2012)

What was measured:
Cytotoxicity assay = format: cell-based; settings: mouse, Balb/C 3T3 mouse fibroblasts (clone A31)
T. cruzi epimastigotes = settings: ref Ramos et al., 2009; cited from earlier work
[1] = system: T. cruzi epimastigotes (Tulahuen CL98 strain); assay: Antitrypanosomal activity assay; format: cell-based, Trypanosoma cruzi; settings: for IC50: Trypanosoma cruzi, TULAHUEN, 48 h, read-out: Antitrypanocidal activity IC50; for Selectivity index (Cytotoxicity/ Activity): ratio of IC50 for fibroblast cells/ IC50 for parasites
[2] = Antitrypanosomal activity assay; format: cell-based, Trypanosoma cruzi; settings: mouse (fibroblasts) / Trypanosoma cruzi (parasites)

Compound | IC50 at 48 h (Cytotoxicity assay) [µM] | IC50 [1] [µM] | Selectivity index (Cytotoxicity/ Activity) [1] | further results
O=C1C(Br)=C(N(C(=O)c2ccccc2Cl)C(=O)c2ccccc2Cl)C(=O)c2ccccc21 [IMDNQ6, N-(3-Bromo-1,4-dioxo-1,4-dihydronaphthalen-2-yl)-2-chloro-N-(2-chlorobenzoyl)-benzamide] | 14.2 ± 1.42 |  |  | 
O=C1C(c2ccccc2)=C(c2ccccc2)C(=O)c2ccccc21 [DPNQ, 2,3-diphenyl-1,4-naphthoquin-one] |  |  |  | LD50 (T. cruzi epimastigotes): 2.5 µM
O=C1C(Cl)=C(N(C(=O)c2ccc(F)cc2)C(=O)c2ccc(F)cc2)C(=O)c2ccccc21 [IMDNQ9, N-(3-Chloro-1,4-dioxo-1,4-dihydronaphthalen-2-yl)-4-fluoro-N-(4-fluorobenzoyl)-benzamide] | 21.8 ± 1.88 | 4.07 ± 0.23 |  | 
CCCC(=O)N(C(=O)CCC)C1=C(Cl)C(=O)c2ccccc2C1=O [IMDNQ3] |  |  | 31.83 ± 3.17 | 
O=C1C(Cl)=C(N2C(=O)COCC2=O)C(=O)c2ccccc21 [IMDNQ4] |  |  | 7.43 ± 0.97 | 
O=C1C(Cl)=C(N2C(=O)CCC2=O)C(=O)c2ccccc21 [IMDNQ1] |  |  | 60.25 ± 2.79 | 
O=C1C(Cl)=C(N(C(=O)c2ccccc2Cl)C(=O)c2ccccc2Cl)C(=O)c2ccccc21 [IMDNQ8, 2-Chloro-N-(2-chlorobenzoyl)-N-(3-chloro-1,4-dioxo-1,4-dihydronaphthalen-2-yl)-benzamide] | 26.5 ± 1.61 | 2.67 ± 0.33 |  | 
CC1CS(=O)(=O)CCN1/N=C/c1ccc([N+](=O)[O-])o1 (stereo not shown) [Nifurtimox, reference compound] |  | 10.7 ± 1.01 |  | 
O=C1C(Cl)=C(N(C(=O)c2cccc(Cl)c2)C(=O)c2cccc(Cl)c2)C(=O)c2ccccc21 [IMDNQ10, 3-Chloro-N-(3-chlorobenzoyl)-N-(3-chloro-1,4-dioxo-1,4-dihydronaphthalen-2-yl)-benzamide] |  | 2.23 ± 0.15 |  | selectivity ratio at 48 h [2]: 275 ± 13.7
O=C1C(Cl)=C(N2C(=O)c3ccccc3C2=O)C(=O)c2ccccc21 [IMDNQ2] |  |  | 53.97 ± 5.95 | 
O=C1C(Cl)=C(N(C(=O)CCl)C(=O)CCl)C(=O)c2ccccc21 [IMDNQ11] |  |  | 3.20 ± 0.44 | 
O=C1C(Br)=C(N(C(=O)c2ccc(F)cc2)C(=O)c2ccc(F)cc2)C(=O)c2ccccc21 [IMDNQ5, N-(3-Bromo-1,4-dioxo-1,4-dihydronaphthalen-2-yl)-4-fluoro-N-(4-fluorobenzoyl)-benzamide] | 12.8 ± 0.73 | 2.27 ± 0.15 |  | 
